In patent US8501446B2 (Vertex Pharmaceuticals Incorporated, priority 2004, dated 2013):

Columns and labels:
Format in all cases: biochemical
[1] = biological target: T1, full length Aurora-A (AA 1-403) (Homo sapiens, UniProt O14965); assay: Aurora-A inhibition assay, standard coupled enzyme system; settings: average Ki if more than one value determined
T1 construct: full length Aurora-A (AA 1-403)
T1 sequence (O14965 1-403): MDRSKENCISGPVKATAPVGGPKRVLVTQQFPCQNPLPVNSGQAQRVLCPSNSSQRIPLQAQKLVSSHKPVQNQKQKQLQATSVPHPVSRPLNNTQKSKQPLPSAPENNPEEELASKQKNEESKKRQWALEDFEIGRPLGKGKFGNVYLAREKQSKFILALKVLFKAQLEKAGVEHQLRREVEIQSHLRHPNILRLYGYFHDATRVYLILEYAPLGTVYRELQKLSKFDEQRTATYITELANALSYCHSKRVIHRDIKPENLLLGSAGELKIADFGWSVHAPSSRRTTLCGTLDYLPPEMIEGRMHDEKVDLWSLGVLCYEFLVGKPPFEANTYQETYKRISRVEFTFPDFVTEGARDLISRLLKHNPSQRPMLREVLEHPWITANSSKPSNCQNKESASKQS

[2] = biological target: Aurora-B (Homo sapiens, UniProt Q96GD4); assay: Aurora-B inhibition assay, radioactive assay; settings: average Ki if more than one value determined
Experimental: Compounds were screened for their ability to inhibit JAK3 using a standard radioactive enzyme assay. 1.5 μL/well of a DMSO stock containing serial dilutions of a compound of the present invention (concentrations ranging from 667 μM to 46 nM) was placed in a 96 well polycarbonate plate. 50 μL per well of kinase buffer (100 mM HEPES (pH 7.4), 10 mM MgCl2, 25 mM NaCl, 1 mM DTT, and 0.01% bovine serum albumin (BSA)) containing 2 μM poly(Glu)4Tyr and 10 μM ATP was also added to the plate. To initiate the reaction, 50 μL kinase buffer containing 2 nM JAK3 enzyme was added. Final ATP concentration was 5 μM [γ-^33P] ATP (200 μCi ^33P ATP/μmol ATP (Perkin Elmer, Cambridge, Mass.). After 20 minutes at room temperature (25° C.), the reaction was stopped by adding 50 μL 20% trichloroacetic acid (TCA)/0.4 mM ATP to each well. The entire content of each well was then transferred to a 96 well glass fiber filter plate using a TomTek Cell Harvester. After washing, 60 μL scintillation fluid was added and ^33P incorporation detected using a Perkin Elmer TopCount. After removing mean background values for all of the data points the data was fit using Prism software to obtain a Ki(app). Inhibition of JAK2 was measured as above except that final poly(Glu)4Tyr concentration was 15 μM and final ATP concentration was 12 μM.
Some compounds were screened for their ability to inhibit ROCK using a standard radioactive enzyme assay. Assays were carried out in a solution containing 100 mM HEPES (pH 7.5), 10 mM MgCl2, 25 mM NaCl, 2 mM DTT, and 1.5% DMSO. Final substrate concentrations in the assay were 13 μM [γ-^33P] ATP (25 mCi ^33P ATP/mmol ATP, Perkin Elmer, Cambridge, Mass./Sigma Chemicals, St Louis, Mo.) and 27 μM Myelin Basic Protein (MBP). Final enzyme concentration in the assay was 5 nM ROCK. Assays were carried out at room temperature. 1.5 μl of DMSO stock containing serial dilutions of the compound of the present invention (concentrations ranging from 10 μM to 2.6 nM) was placed in a 96 well plate. 50 μl of Solution 1 (100 mM HEPES (pH 7.5), 10 mM MgCl2, […]) was added to the plate. The reaction was initiated by addition of 50 μl of Solution 2 (100 mM HEPES (pH 7.5), 10 mM MgCl2, 4 mM DTT, […] and 10 nM ROCK). After 2 hours the reaction was quenched with 50 μL of 30% trichloroacetic acid (TCA, Fisher) containing 9 mM ATP. Transfer of 140 μL of the quenched reaction to a glass fiber filter plate (Corning, Cat. No. 3511) was followed by washing 3 times with 5% TCA. 50 μL of Optima Gold scintillation fluid (Perkin Elmer) was added and the plates were counted on a Top Count (Perkin Elmer). After removing mean background values for all of the data points the data was fit using Prism software to obtain a Ki(app).
An assay stock buffer solution was prepared containing all of the reagents listed above with the exception of ATP and the test compound of interest. The assay stock buffer solution (60 μl) was incubated in a 96 well plate with 2 μl of the test compound of interest at final concentrations spanning 0.002 μM to 30 μM at 30° C. for 10 min. Typically, a 12 point titration was conducted by preparing serial dilutions (from 1 mM compound stocks) with DMSO of the test compounds in daughter plates. The reaction was initiated by the addition of 5 μl of ATP (final concentration 200 μM). Rates of reaction were obtained using a Molecular Devices Spectramax plate reader (Sunnyvale, Calif.) over 10 min at 30° C. The Ki values were determined from the rate data as a function of inhibitor concentration using computerized nonlinear regression (Prism 3.0, Graphpad Software, San Diego, Calif.). Aurora-C activity was screened in a similar manner using Aurora-C protein. Aurora-B activity was screened using a radioactive assay, such as described in Examples 1 and 2, but using Aurora-B protein.

[3] = biological target: T2, JAK3 (Homo sapiens, UniProt P52333); assay: JAK3 inhibition assay (standard radioactive enzyme assay); settings: average Ki if more than one value determined
T2 sequence (P52333 1-1124): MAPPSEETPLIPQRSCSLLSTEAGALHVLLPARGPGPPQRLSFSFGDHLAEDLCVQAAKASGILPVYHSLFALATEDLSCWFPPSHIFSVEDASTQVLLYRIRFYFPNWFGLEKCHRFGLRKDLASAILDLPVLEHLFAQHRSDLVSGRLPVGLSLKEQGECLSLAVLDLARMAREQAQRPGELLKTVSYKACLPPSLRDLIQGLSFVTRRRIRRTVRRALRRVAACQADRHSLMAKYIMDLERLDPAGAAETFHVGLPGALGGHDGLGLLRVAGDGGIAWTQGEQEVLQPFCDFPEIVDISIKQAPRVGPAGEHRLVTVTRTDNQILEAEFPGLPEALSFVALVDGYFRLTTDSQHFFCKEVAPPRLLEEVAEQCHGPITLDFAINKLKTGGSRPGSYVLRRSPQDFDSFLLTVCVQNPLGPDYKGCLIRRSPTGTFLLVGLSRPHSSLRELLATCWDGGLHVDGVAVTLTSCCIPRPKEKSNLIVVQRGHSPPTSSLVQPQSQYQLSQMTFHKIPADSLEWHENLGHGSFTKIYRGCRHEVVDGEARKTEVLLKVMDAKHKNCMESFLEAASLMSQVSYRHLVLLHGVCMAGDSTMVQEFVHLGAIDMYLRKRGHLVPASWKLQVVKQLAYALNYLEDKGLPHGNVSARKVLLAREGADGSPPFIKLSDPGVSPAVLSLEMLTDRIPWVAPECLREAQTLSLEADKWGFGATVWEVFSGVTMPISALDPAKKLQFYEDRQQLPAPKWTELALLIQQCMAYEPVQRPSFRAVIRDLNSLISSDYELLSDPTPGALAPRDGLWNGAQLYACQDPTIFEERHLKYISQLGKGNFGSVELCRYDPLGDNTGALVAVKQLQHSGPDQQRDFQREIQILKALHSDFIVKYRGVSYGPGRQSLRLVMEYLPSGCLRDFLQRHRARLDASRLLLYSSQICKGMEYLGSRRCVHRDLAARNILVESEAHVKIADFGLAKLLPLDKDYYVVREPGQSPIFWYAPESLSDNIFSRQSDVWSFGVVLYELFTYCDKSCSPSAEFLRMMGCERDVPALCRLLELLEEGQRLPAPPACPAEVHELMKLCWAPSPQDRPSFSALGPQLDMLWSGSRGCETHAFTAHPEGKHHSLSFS

[4] = biological target: JAK2 (Homo sapiens, UniProt O60674); assay: JAK2 inhibition assay (radioactive enzyme assay, as for JAK3); settings: average Ki if more than one value determined
Procedure, shortened: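 Both kinases: poly(Glu)4Tyr substrate in 100 mM HEPES pH 7.4, 10 mM MgCl2, 1 mM DTT. Run 20 min at 25° C, TCA stop, filter-bound ³³P counted, Ki(app) fitted after background subtraction. JAK3: final [γ-³³P]ATP 5 μM, enzyme added as 2 nM solution. JAK2: final poly(Glu)4Tyr 15 μM, final ATP 12 μM.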

[5] = biological target: T3, ROCK I (AA 6-553) (Homo sapiens, UniProt Q13464); assay: ROCK inhibition assay, standard coupled enzyme system ("Enzyme"); settings: enzyme-linked assay
T3 construct: ROCK I (AA 6-553)
Procedure, shortened: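 ROCK I (AA 6-553) at 45 nM and 30 °C with 45 μM ATP and 200 μM peptide, in 100 mM HEPES pH 7.5, 10 mM MgCl2, 25 mM NaCl, 2 mM DTT, 1.5% DMSO. ADP output read by a PK/LDH coupled system: 2.5 mM PEP, 350 μM NADH, 30 μg/ml PK, 10 μg/ml LDH.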

Chain of JAK2 (O60674 whole entry, species assumed): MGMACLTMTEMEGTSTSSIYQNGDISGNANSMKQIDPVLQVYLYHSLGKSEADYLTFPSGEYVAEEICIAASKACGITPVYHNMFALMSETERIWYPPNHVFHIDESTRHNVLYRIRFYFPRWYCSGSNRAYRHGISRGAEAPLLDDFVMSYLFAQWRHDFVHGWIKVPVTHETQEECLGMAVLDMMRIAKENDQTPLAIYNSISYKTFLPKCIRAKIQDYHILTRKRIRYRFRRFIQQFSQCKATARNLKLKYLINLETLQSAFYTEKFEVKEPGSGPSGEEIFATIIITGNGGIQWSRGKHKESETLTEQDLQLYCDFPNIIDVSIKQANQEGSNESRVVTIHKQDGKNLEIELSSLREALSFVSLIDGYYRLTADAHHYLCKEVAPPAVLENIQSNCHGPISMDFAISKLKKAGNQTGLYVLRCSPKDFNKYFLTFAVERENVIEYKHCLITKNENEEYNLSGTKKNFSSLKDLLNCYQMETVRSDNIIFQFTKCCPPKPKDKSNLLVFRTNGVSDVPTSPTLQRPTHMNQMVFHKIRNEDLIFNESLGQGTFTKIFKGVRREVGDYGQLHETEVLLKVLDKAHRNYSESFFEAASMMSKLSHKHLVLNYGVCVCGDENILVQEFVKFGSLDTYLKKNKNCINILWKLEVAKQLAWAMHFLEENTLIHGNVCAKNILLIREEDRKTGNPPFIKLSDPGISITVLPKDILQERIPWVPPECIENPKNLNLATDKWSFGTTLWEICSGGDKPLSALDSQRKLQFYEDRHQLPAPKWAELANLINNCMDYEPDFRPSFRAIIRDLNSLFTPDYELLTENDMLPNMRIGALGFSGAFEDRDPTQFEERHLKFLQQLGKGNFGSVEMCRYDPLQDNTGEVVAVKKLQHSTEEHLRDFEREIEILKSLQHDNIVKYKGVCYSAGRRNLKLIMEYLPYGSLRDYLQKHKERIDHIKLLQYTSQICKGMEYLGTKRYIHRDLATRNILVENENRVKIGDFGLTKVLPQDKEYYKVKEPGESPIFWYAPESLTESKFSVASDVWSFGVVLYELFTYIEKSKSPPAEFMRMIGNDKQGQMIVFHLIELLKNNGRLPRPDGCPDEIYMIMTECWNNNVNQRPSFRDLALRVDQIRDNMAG
T3 sequence (Q13464 6-553, species assumed): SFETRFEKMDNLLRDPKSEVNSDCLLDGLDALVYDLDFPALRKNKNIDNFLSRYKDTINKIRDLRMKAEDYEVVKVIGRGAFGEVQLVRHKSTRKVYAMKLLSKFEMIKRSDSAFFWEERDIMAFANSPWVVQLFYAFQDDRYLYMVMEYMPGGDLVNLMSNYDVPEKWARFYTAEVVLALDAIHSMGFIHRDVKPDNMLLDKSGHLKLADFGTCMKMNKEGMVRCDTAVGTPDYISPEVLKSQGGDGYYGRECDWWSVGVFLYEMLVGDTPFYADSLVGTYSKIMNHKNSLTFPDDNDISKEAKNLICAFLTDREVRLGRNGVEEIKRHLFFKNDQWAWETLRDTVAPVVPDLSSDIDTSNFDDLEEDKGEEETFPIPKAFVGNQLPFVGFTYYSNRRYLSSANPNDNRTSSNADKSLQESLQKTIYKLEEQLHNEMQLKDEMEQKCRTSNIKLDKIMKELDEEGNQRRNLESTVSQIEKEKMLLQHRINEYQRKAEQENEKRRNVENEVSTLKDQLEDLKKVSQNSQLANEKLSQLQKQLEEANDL
Chain of Aurora-B (Q96GD4 whole entry): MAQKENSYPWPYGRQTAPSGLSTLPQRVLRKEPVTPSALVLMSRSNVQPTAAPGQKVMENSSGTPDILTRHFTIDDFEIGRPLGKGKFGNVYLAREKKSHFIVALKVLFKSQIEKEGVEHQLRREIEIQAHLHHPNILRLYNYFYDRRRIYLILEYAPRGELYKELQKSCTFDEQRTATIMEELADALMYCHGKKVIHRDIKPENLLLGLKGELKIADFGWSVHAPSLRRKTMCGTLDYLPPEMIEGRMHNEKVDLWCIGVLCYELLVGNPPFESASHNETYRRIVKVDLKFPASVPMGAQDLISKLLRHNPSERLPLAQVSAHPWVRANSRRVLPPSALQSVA

Structure (SMILES)	Ki [1] [nM]	Ki [2] [nM]	Ki [3] [nM]	Ki [4] [nM]	Ki [5] [nM]
COC(=O)COc1cccc([C@H](C)Nc2nc(-c3c[nH]c4ncc(Cl)cc34)ncc2F)c1 [Compound 335]	< 500	< 500	–	–	–
C[C@H](Nc1nc(-c2c[nH]c3ncc(Cl)cc23)ncc1F)C(=O)NCCSCc1c(Cl)cccc1Cl [Compound 462]	500 to 5000	500 to 5000	–	–	–
CC(=O)N1[C@H](C)CN(c2cccc(-c3c[nH]c4ncc(NC(=O)c5ccccc5F)cc34)n2)C[C@@H]1C [Compound 172]	500 to 5000	–	< 500	< 500	< 500
CC(=O)N1[C@H](C)CN(c2cccc(-c3c[nH]c4ncc(C(=O)OC(C)C)cc34)n2)C[C@@H]1C [Compound 53]	< 500	–	< 500	< 500	< 500
C/C=C(\C)C(=O)Nc1cnc2[nH]cc(-c3cccc(N4C[C@@H](C)N(C(C)=O)[C@@H](C)C4)n3)c2c1 [Compound 161]	500 to 5000	–	< 500	< 500	500 to 5000
CC(=O)N1[C@H](C)CN(c2cccc(-c3c[nH]c4ncc(NC(=O)CCN5CCOCC5)cc34)n2)C[C@@H]1C [Compound 121]	500 to 5000	–	< 500	< 500	500 to 5000
CC(=O)N1[C@H](C)CN(c2ccc([N+](=O)[O-])c(-c3c[nH]c4ncc(Cl)cc34)n2)C[C@@H]1C [Compound 78]	< 500	–	< 500	< 500	500 to 5000
CC(=O)N1[C@H](C)CN(c2cccc(-c3c[nH]c4ncc(NC(=O)c5cccnc5)cc34)n2)C[C@@H]1C [Compound 163]	500 to 5000	–	< 500	< 500	500 to 5000
CC(=O)N1[C@H](C)CN(c2nc(-c3c[nH]c4ncc(Cl)cc34)ccc2-c2nnn[nH]2)C[C@@H]1C [Compound 120]	< 500	–	< 500	< 500	500 to 5000
CC(=O)N1CCCN(c2cccc(-c3c[nH]c4ncc(C(=O)NCCCN5CCN(C)CC5)cc34)n2)CC1 [Compound 125]	500 to 5000	–	< 500	< 500	500 to 5000
Fc1cnc2[nH]cc(-c3cccc(NCc4ccccc4)n3)c2c1 [Compound 48]	< 500	–	< 500	< 500	500 to 5000
COC(=O)c1ccc(-c2c[nH]c3ncc(Cl)cc23)nc1NCc1ccccc1 [Compound 43]	< 500	–	500 to 5000	500 to 5000	500 to 5000
CC(=O)Nc1cnc2[nH]cc(-c3cccc(N4C[C@@H](C)N(C(C)=O)[C@@H](C)C4)n3)c2c1 [Compound 113]	500 to 5000	–	< 500	< 500	500 to 5000
CC(=O)N1[C@H](C)CN(c2cccc(-c3c[nH]c4ncc(NC(=O)c5cnccn5)cc34)n2)C[C@@H]1C [Compound 164]	500 to 5000	–	< 500	< 500	500 to 5000
O=C(O)c1ccc(NCc2ccccc2)nc1-c1c[nH]c2ncc(Cl)cc12 [Compound 44]	< 500	–	500 to 5000	500 to 5000	500 to 5000
CC(=O)N1[C@H](C)CN(c2cccc(-c3c[nH]c4ncc(C)cc34)n2)C[C@@H]1C [Compound 41]	< 500	–	< 500	< 500	500 to 5000
CC(C)CNc1cc(C#N)cc(-c2c[nH]c3ncc(Cl)cc23)n1 [Compound 150]	500 to 5000	–	< 500	< 500	500 to 5000
CC(=O)N1[C@H](C)CN(c2cccc(-c3c[nH]c4ncc(NC(=O)c5cscn5)cc34)n2)C[C@@H]1C [Compound 162]	500 to 5000	–	< 500	< 500	500 to 5000
CC(=O)N1[C@H](C)CN(c2nc(-c3c[nH]c4ncc(Cl)cc34)c(F)cc2C#N)C[C@@H]1C [Compound 68]	< 500	–	< 500	< 500	500 to 5000
CC(=O)N1[C@H](C)CN(c2cccc(-c3c[nH]c4ncc(F)cc34)n2)C[C@@H]1C [Compound 50]	500 to 5000	–	< 500	< 500	< 500
